The test system of one data set is Oryctolagus sp. The following applies: reproduction developmental.
For the next data set, the system named is Pontoscolex corethrurus. Conditions: acute; mortality.
The next data set has as its system Rattus norvegicus. Conditions: for LD50: acute, mortality.
The next data set deals with Mus musculus. The following applies: chronic.
The subject of another data set is Gallus gallus. Conditions: subchronic; duration: 42 days; oral; diet; Chicken; no effects.
Another data set deals with Oncorhynchus mykiss. The following applies: acute, mortality.
For the next data set, the system named is Apis mellifera. Conditions: acute, mortality.
In the next data set the test system is Anas platyrhynchos. The following applies: oral, mortality.
Where [1] appears, read: duration: 21 months, M, hematological.
The mark [2] stands for this setting: duration: 23 months, F, hematological.

≈ marks a conversion by molar mass, not a printed value. Where “and” joins values, the source holds several entries; their conditions need not be identical. Equal values may be shown once.

In the data set on Canidae (chronic, duration: 9 months, oral, diet, M/F, Beagle, no effects), `C=CO.OCCO` showed an NOAEL of 800 mg/kg-day.
Turning to `COC(=O)[C@H](Cc1ccccc1)NC(=O)[C@H](CC(=O)O)NCCCc1ccc(OC)c(O)c1.O`, the NOAEL with Oryctolagus sp. (duration: 22 days, oral, gavage, F, New Zealand, clinical signs) came to 500 mg/kg-day.
In the data set with Oryctolagus sp. (body weight), `O=C(O)c1cn[nH]c1C(F)F` [1H-3-Difluoromethylpyrazole-4-carboxylic acid] returned an NOAEL of 300 mg/kg-day.
The compound `COc1nc(C)nc(N)n1` [2-Methyl-4-amino-6-methoxy-s-triazine] had an LD50 (acute, dermal, F, mortality) of 1000 mg/kg. For the setting “acute, inhalation, mortality”, this compound showed an LC50 of over 5.2 µg/mL.
In turn, `CCC=C(C)C(=O)O` [2-Methylpent-2-en-1-oic acid] came in with an LC50 in the data set on Pontoscolex corethrurus of 2040 mg/kg.
In the data set on Colinus virginianus (acute, oral, mortality), `Nc1ccc(Cl)c(Cl)c1` [3,4-Dichloroaniline] registered an LD50 of 99.1 mg/kg-day.
Regarding `CCCC(=O)C(CC)Sc1ccoc1C` (configuration not stated) [3-(2-Methyl-3-furylthio)-4-heptanone], the no-observed-adverse-effect level (NOAEL) in the data set with Rattus norvegicus (subchronic, duration: 90 days, oral, diet) amounted to 3.76 mg/kg-day; the NOAEL with Rattus norvegicus (subchronic, duration: 90 days, oral, diet, M/F, no effects) is 3.76 mg/kg-day; the no observed adverse effect level (NOAEL) (subchronic, duration: 90 days) stood at 3.76 mg/kg-day.
For `CSCc1ccsc1` [3-(Methylthio)methylthiophene], the NOAEL with Rattus norvegicus (subchronic, duration: 90 days) was 0.29 mg/kg-day and the NOAEL (repeat dose other) was determined as 0.29 mg/kg-day.
`COc1cc(CCC(C)=O)ccc1O` [4-(4-Hydroxy-3-methoxyphenyl)-2-butanone] returned an LC50 with Pontoscolex corethrurus of 346 mg/kg.
In turn, `c1cnc2c(n1)CCCC2` [5,6,7,8-Tetrahydroquinoxaline] gave an LC50 with Pontoscolex corethrurus of 238 mg/kg.
The same measure, in the same setting: under `Cc1cccc2nccnc12` [5-Methylquinoxaline] stands 272 mg/kg.
As to `CCN(CC)c1ccc(C(=C2C=CC(=[N+](CC)CC)C=C2)c2cc(O)c(S(=O)(=O)[O-])cc2S(=O)(=O)[O-])cc1.CCN(CC)c1ccc(C(=C2C=CC(=[N+](CC)CC)C=C2)c2cc(O)c(S(=O)(=O)[O-])cc2S(=O)(=O)[O-])cc1.[Ca+2]` [Acid Blue 3], the no observed adverse effect level (NOAEL) in the data set on Mus musculus (setting [1]) and with Mus musculus (setting [2]) was 500 mg/kg-day each time.
In the case of `CCCCC(CC)COC(=O)C1CCC(C(=O)OCC(CC)CCCC)CC1` (configuration not stated) [Bis(2-ethylhexyl) cyclohexane-1,4-dicarboxylate], the NOAEL (subchronic, duration: 90 days, oral, no effects) was found to be 1000 mg/kg-day.
Take `CCOC(=O)C(CC)C(C)=O` (configuration not stated) [Butanoic acid, 2-ethyl-3-oxo-, ethyl ester]: under “repeat dose other, development”, the no observed adverse effect level (NOAEL) came to 600 mg/kg-day.
Take `O=S(=O)([O-])c1cc(S(=O)(=O)[O-])c2c(N=Nc3ccc(S(=O)(=O)[O-])c4ccccc34)c(O)ccc2c1.[Na+].[Na+].[Na+]` [C.I. Acid Red 18, trisodium salt]: the NOAEL with Mus musculus (duration: 82 weeks, oral, diet, M/F, neurology) was determined as 70 mg/kg-day.
As to `CCN(CC)c1ccc(C(=C2C=CC(=[N+](CC)CC)C=C2)c2cc(O)c(S(=O)(=O)[O-])cc2S(=O)(=O)[O-])cc1.[Na+]` [C.I. Food Blue 5:2], the no-observed-adverse-effect level (NOAEL) with Mus musculus (setting [1]) and in the data set with Mus musculus (setting [2]) was 500 mg/kg-day each time.
`CC(O)C(=O)[O-].CC(O)C(=O)[O-].[Ca+2]` (configuration not stated) [Calcium lactate] returned an LEL in the data set on Gallus gallus of 30000 mg/kg-day.
For the setting “subchronic, duration: 90 days, oral”, `C1CCC(SSC2CCCCC2)CC1` [Dicyclohexyl disulfide] returned a no observed adverse effect level (NOAEL) of 0.23 mg/kg-day.
`CCO` [Ethanol] yielded an NOAEL in the data set with Rattus norvegicus (subchronic, duration: 90 days, oral, gavage, organ weight) of 1730 mg/kg-day. For the same compound, the LC50 in the data set on Oncorhynchus mykiss (duration: 24 hours) came to 11200 µg/mL (≈ 243000 µM).
As to `CCCSP(=O)(OCC)SCCC` [Ethoprop], the NOEL in the data set on Rattus norvegicus (chronic) came out at 7.3 mg/kg-day; in the data set on Colinus virginianus (reproduction developmental, mortality) it was 0.088 mg/kg-day.
Compound `CCOc1ccc2c(c1)C(C)=CC(C)(C)N2` [Ethoxyquin] showed an LD50 in the data set on Rattus norvegicus (oral) of 1730 mg/kg-day. The LC50 in the data set with Oncorhynchus mykiss (duration: 96 hours) was 18 µg/mL (≈ 82.8 µM); with Colinus virginianus (acute, oral, diet, mortality), over 2420 mg/kg-day. In the data set on Colinus virginianus (short-term, oral, diet), this compound returned an NOEC of 1500 mg/kg-day. In the data set with Canidae (subchronic, duration: 90 days, Dog Other, clinical signs), this compound showed an NOEL of 2 mg/kg-day.
Regarding `C=CCc1ccc(O)c(OC)c1` [Eugenol], in the data set on Rattus norvegicus (oral), the LD50 was 1930 mg/kg. Further, the NOAEL turned out to be 300 mg/kg-day with Rattus norvegicus (chronic, duration: 2 years, body weight); 100 mg/kg-day in the data set with Rattus norvegicus (reproduction developmental, clinical signs); 100 mg/kg-day in the data set on Oryctolagus sp. (clinical signs). This compound also had an NOEL in the data set with Rattus norvegicus (developmental, development) of 250 mg/kg-day. Also, in the data set with Oncorhynchus mykiss (duration: 96 hours), the LC50 is 5.6 µg/mL and > 10 µg/mL.
On to `N#Cc1nn(-c2c(Cl)cc(C(F)(F)F)cc2Cl)c(N)c1S(=O)C(F)(F)F` (configuration not stated) [Fipronil], for which the LD50 with Apis mellifera (dermal) came out at 0.00593 µg/piece; with Apis mellifera (oral, unspecified), 0.00417 µg/piece.
With `O=c1c2cc(F)ccc2nc(-n2cncn2)n1-c1ccc(Cl)cc1Cl` [Fluquinconazole], the LD50 was over 2000 mg/kg-day in the data set with Anas platyrhynchos (acute, unspecified); over 210 mg/kg-day in the data set on Anas platyrhynchos (short-term, feed); over 112 mg/kg-day with Rattus norvegicus; over 2000 mg/kg-day with Colinus virginianus (acute, oral, mortality). For the same compound, in the data set with Rattus norvegicus (chronic), the NOAEL is 0.9 mg/kg-day. The NOEL in the data set with Colinus virginianus (chronic) turned out to be 1.9 mg/kg-day.

By NOAEL is commonly meant the highest dose or exposure tested at which no adverse effect was seen.

The record behind these values is EPA's ToxValDB 9.5.
